# Measurements published in the supplement of paper PMC10307832.
# Assays:
# Test in all cases: relative viability (nuclei count vs DMSO), 5 days (fraction); higher = more cells survive
# [1] = compound: CC(C)S(=O)(=O)C1=CC=CC=C1NC2=NC(=NC(=C2Cl)N)NC3=C(C=C(C=C3)N4CCC(CC4)C(=O)N)OC [HG-5-88-01]
# Summary of the method: (§1)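 Hoechst staining, done together with fixation and permeabilisation, marked nuclei for 4× imaging and MetaXpress counting. This followed 5 days without medium change after lung cancer cell lines, kept overnight at 37 °C in 1536-well plates, were pinned with five library-drug doses (not always all listed) spaced by √10 on vehicle-anchored plates. Viability is the ratio of treated-well to vehicle-well nuclei, expressed as a median across plates. Plates passed only at control CV below 25% with at least one doubling.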
# [2] = compound: CC(C)Oc1cc(Nc2nc(N[C@@H](C)c3ccc(F)cn3)ncc2Cl)n[nH]1 [AZ23]
# Summary of the method: as §1
# [3] = compound: CCCCCCCCCCCC1=C(O)C(=O)C=C(O)C1=O [Embelin]
# Summary of the method: as §1
# [4] = compound: C[C@@H]1CN(CC(=O)Nc2ccc3c(c2)Cc2cccc(-c4cc(=O)cc(N5CCOCC5)o4)c2S3)C[C@H](C)O1
# Summary of the method: as §1
# [5] = compound: Clc1ccc(Nc2nnc(Cc3ccncc3)c3ccccc23)cc1 [Vatalanib]
# Summary of the method: as §1
Cell Line,relative viability ([1]; 0.04 µM),relative viability ([1]; 0.1265 µM),relative viability ([1]; 0.4 µM),relative viability ([1]; 4 µM),relative viability ([2]; 0.01 µM),relative viability ([2]; 0.03162 µM),relative viability ([2]; 0.3162 µM),relative viability ([3]; 0.08 µM),relative viability ([3]; 0.8 µM),relative viability ([3]; 2.53 µM),relative viability ([3]; 8 µM),relative viability ([4]; 0.04 µM),relative viability ([4]; 0.1265 µM),relative viability ([4]; 0.4 µM),relative viability ([4]; 4 µM),relative viability ([5]; 0.04 µM),relative viability ([5]; 0.1265 µM),relative viability ([5]; 0.4 µM),relative viability ([5]; 1.265 µM),relative viability ([5]; 4 µM),relative viability ([1]; 1.265 µM)
H3255,1.04,1.05,0.838,0.871,0.858,1.21,0.999,0.963,1.05,0.875,1.07,0.917,0.947,0.905,0.878,0.921,0.926,0.841,0.781,0.978,–
HARA,1.04,0.979,0.923,0.805,0.821,1.1,1.07,0.963,1.12,1.05,0.929,0.931,0.908,0.873,0.911,0.88,0.99,1.12,0.878,1.03,0.598
HCC-15,1.07,1.02,0.901,0.743,1.21,1.02,1.07,1.01,1.09,1.01,0.964,1.09,0.898,0.97,0.903,1.07,1.04,1.06,0.983,1.08,1
HCC-44,1.04,0.972,0.914,0.567,0.999,1.06,1.01,0.886,1.01,1.01,0.869,0.934,0.976,0.919,0.923,0.951,0.905,0.943,0.963,0.97,0.927
HCC-78,0.836,0.736,0.476,0.417,0.837,1.01,0.589,1.02,1.02,0.977,1.07,0.883,0.922,0.821,0.923,0.95,0.862,0.972,0.82,0.835,0.378
HCC-366,0.998,1.01,0.987,1.05,1.04,1.03,1.03,1.01,1.03,1.09,1.06,1.01,0.987,1.08,0.925,1.01,0.881,1.01,0.975,0.978,0.987
HCC-827,1.06,1.05,1.06,0.615,1.06,1.13,1.08,1.03,1.11,1.09,1.09,1.05,1.04,1.08,1.07,1.02,0.949,0.924,1.04,0.996,1.03
HOP-62,1.03,1.06,0.92,1.02,1.13,1.11,1.12,1.02,1.07,1.1,0.984,0.978,0.991,0.973,0.988,0.954,0.957,1.07,0.949,1.01,1.02
IA-LM,0.959,0.984,0.85,0.704,0.91,1.12,1.07,0.932,0.981,1,0.689,0.911,0.938,0.946,0.574,0.977,0.898,0.955,0.909,0.898,0.715
LC-2-ad,1.08,0.998,1.01,0.802,1.17,1.04,1.02,0.986,1.14,1.09,0.95,1.07,0.969,0.993,0.903,1.02,0.861,0.793,0.963,0.948,0.948
LCLC-97TM1,0.98,0.922,0.807,0.291,0.998,0.915,0.873,0.906,1.15,1.17,0.971,–,0.965,0.853,1.04,0.875,0.84,0.977,0.838,1.03,0.838
LCLC-103H,1.04,1.04,0.86,0.657,1.04,0.993,1.08,0.999,1.06,1.04,0.8,1.01,0.903,0.793,0.926,1.05,0.932,1.01,0.993,0.977,0.96
LK-2,0.976,0.994,0.962,0.789,0.802,1.14,0.959,1.1,1.07,1.25,0.856,0.848,0.923,0.979,1.1,0.952,0.863,0.889,1.01,0.995,0.582
LOU-NH91,0.912,0.904,0.866,0.629,0.921,1.08,1.01,1.02,1.27,0.991,0.864,0.943,0.989,0.966,0.876,0.925,0.936,0.816,0.876,0.921,0.612
LU99A,0.963,0.958,0.873,0.907,1.04,0.998,0.941,1.08,1.07,1.08,0.948,0.86,1.05,1.15,0.975,1.03,1.02,1.06,0.951,0.923,1.02
LXF-289,1.04,1.03,0.976,0.986,1.17,1.04,1.02,1.04,1.04,1.01,1.09,0.974,1.01,1.04,0.976,1.05,0.935,1.02,0.958,1,0.974

Cell Line,relative viability ([1]; 0.04 µM),relative viability ([1]; 0.1265 µM),relative viability ([1]; 0.4 µM),relative viability ([1]; 4 µM),relative viability ([2]; 0.01 µM),relative viability ([2]; 0.03162 µM),relative viability ([2]; 0.3162 µM),relative viability ([3]; 0.08 µM),relative viability ([3]; 0.8 µM),relative viability ([3]; 2.53 µM),relative viability ([3]; 8 µM),relative viability ([4]; 0.04 µM),relative viability ([4]; 0.1265 µM),relative viability ([4]; 0.4 µM),relative viability ([4]; 4 µM),relative viability ([5]; 0.04 µM),relative viability ([5]; 0.1265 µM),relative viability ([5]; 0.4 µM),relative viability ([5]; 1.265 µM),relative viability ([5]; 4 µM),relative viability ([1]; 1.265 µM)
NCI-H23,1.03,0.993,0.959,0.392,–,1.07,0.887,0.987,1.07,1.03,0.705,1.08,0.923,0.943,0.96,0.948,0.833,1.04,0.961,0.853,0.824
NCI-H322M,0.811,0.872,0.876,0.718,0.695,0.974,1.07,0.987,0.996,1.03,0.915,0.823,0.947,0.961,0.827,0.938,0.946,0.936,0.904,0.917,0.494
NCI-H358,0.88,0.879,0.794,0.311,1.03,1.03,1.04,1.02,0.982,1.09,1.15,0.989,0.905,0.958,0.673,1.02,0.911,0.986,0.962,0.955,0.34
NCI-H441,1.09,1.33,1.24,0.819,1.43,1.01,1.06,1.05,1.19,1.45,1.02,1.2,0.787,1.04,0.948,1.16,0.922,1.08,1.08,0.933,0.925
NCI-H460,1,0.953,0.954,1.03,1.03,1.08,1.07,1.01,1.03,1.04,0.997,0.934,0.963,1.06,0.938,1.03,0.924,1.01,0.947,0.984,0.99
NCI-H520,0.994,1.05,0.959,1.02,0.915,1.11,0.92,1.07,1.1,1.11,0.931,0.797,1.05,0.901,0.94,1.07,0.92,1.08,0.881,0.841,1
NCI-H522,1.04,0.903,0.849,0.706,1.04,1.12,1.09,1.01,1.13,1.15,0.821,0.77,1,1.11,0.864,1.1,0.767,0.966,0.917,0.876,0.804
NCI-H596,1.01,0.933,1.04,0.576,1.07,0.915,0.962,0.981,0.986,1.16,0.732,0.947,0.982,0.783,0.885,0.97,1.15,1.06,0.954,0.912,0.994
NCI-H647,1,0.97,0.832,1.1,0.949,1.04,1.22,0.985,1.25,1.08,0.914,0.882,0.976,1,0.734,1,0.943,0.933,0.916,0.85,0.971
NCI-H650,1.04,0.993,0.829,0.576,0.867,1.09,0.921,0.821,1.09,0.909,0.739,0.944,0.95,1.07,0.722,1.01,0.885,–,0.779,0.847,0.902
NCI-H661,0.992,1.01,1.1,1.01,1.05,1.04,0.967,1.01,1.06,1.02,1.04,0.864,0.97,0.951,0.916,0.975,0.971,0.983,0.906,0.988,1.01
NCI-H727,1.08,0.883,0.958,0.63,0.832,0.94,0.973,1.03,0.935,0.958,0.976,0.93,0.885,0.991,0.882,0.943,0.858,0.899,0.832,0.887,0.606
NCI-H838,0.978,1.03,0.79,0.655,0.987,0.993,1,0.982,1.05,1.06,0.896,0.887,0.93,0.883,0.813,1.02,0.928,1.09,0.945,0.942,0.676
NCI-H1299,0.987,1.02,0.992,1.02,1.06,1.01,1.1,1.04,1.05,0.994,1.02,1.05,0.989,1,0.898,1.05,1.01,1.02,1,1.01,0.99
NCI-H1355,1.01,1.06,0.932,0.698,1.14,1.03,1.03,0.996,1.16,1.03,0.775,0.984,0.964,0.959,0.852,1.03,0.99,1.07,0.938,0.969,0.943
NCI-H1395,0.9,0.97,0.921,0.876,–,1.01,0.849,0.941,1.15,0.857,0.617,0.854,0.816,0.761,0.999,0.939,0.871,0.863,0.813,0.885,0.953
